Results reported in patent US11858958B2, “Blank liposome with ginsenoside Rg3 or its analog as membrane materials and preparations and uses thereof” (Shanghai Ginsome Pharmatech Co., Ltd., priority 2018, dated 2024).

Tests used:
rat C6 glioma cells [1] = assay: In vitro drug efficiency assay, survival rate of glioma cells; type: cell-based; details: rat, 72 h
[2] = tested on: human breast cancer cell line (4T1); assay: In vitro drug efficacy assay, cell survival rate (Rh2/PTX groups)
Method: Logarithmically growing tumor cells were collected and resuspended in DMEM complete medium supplemented with 10% fetal bovine serum, 100 U/ml penicillin and 100 μg/ml streptomycin to a final cell density of 4×10^4 cells/ml. Then, 200 μl cell suspension solution was seeded into each well of a 96-well plate (with a concentration of 8×10^3 cells/well) and the plate was cultured in a CO2 cell culture incubator at 37° C. […] The group without replacing DMEM complete medium by anti-cancer drug solution was used as negative control. For each concentration group, 4 replicates were set up. The whole experiment was independently repeated 3 times. The cells were continuously cultured in a CO2 cell culture incubator at 37° C. […] Then discarded the supernatant, added 150 μl DMSO into each well, and shaked the plate for 10 min. The absorbance was measured at 490 nm using a microplate reader (Tecan infinite M 200 TECAN, Switzerland). The cell survival rate is calculated according to the following formula:

[3] = tested on: in-situ glioma model (C6 cells); assay: Survival curve and median survival day; type: in vivo, nude mice
[4] = tested on: human gastric cancer cells (BGC-823); assay: In vitro cell viability assay; type: cell-based; parameters: unit not given here
Text: (§1) For each concentration group, 4 replicates were set up. The whole experiment was independently repeated 3 times.

rat C6 glioma cells [5] = assay: In vitro drug efficiency assay, survival rate of glioma cells; type: cell-based; details: 72 h
Text: as §1
The survival rate of rat glioma C6 cells with addition of Rg3 group, Rg3-blank group, PTX group, PTX+Rg3 group, PTX-Cho-Lipo group and PTX-Rg3-Gipo group at various concentrations respectively are listed in Table 11 and FIG. 12.

SMILES: CC(=O)O[C@H]1C(=O)[C@@]2(C)[C@H]([C@H](OC(=O)c3ccccc3)[C@]3(O)C[C@H](OC(=O)[C@H](O)[C@@H](NC(=O)c4ccccc4)c4ccccc4)C(C)=C1C3(C)C)[C@]1(OC(C)=O)CO[C@@H]1C[C@@H]2O [PTX, paclitaxel]
- Cell Viability (rat C6 glioma cells [1]; 0.0005 μg/ml): 100
- Cell Viability (rat C6 glioma cells [1]; 0.0015 μg/ml): 79.49
- Cell Viability (rat C6 glioma cells [1]; 0.0137 μg/ml): 65.36
- Cell Viability (rat C6 glioma cells [1]; 10 μg/ml): 39.59
- Cell Viability ([2]; 4T1, C 0.00091 μM): 106.72
- Cell Viability ([2]; 4T1, C 0.00274 μM): 94.70
- Cell Viability ([2]; 4T1, C 0.00823 μM): 59.19
- Cell Viability ([2]; 4T1, C 0.02469 μM): 55.83
- Cell Viability ([2]; 4T1, C 0.07407 μM): 49.25
- Cell Viability ([2]; 4T1, C 0.22222 μM): 48.48
- Cell Viability ([2]; 4T1, C 0.66667 μM): 48.54
- Cell Viability ([2]; 4T1, C 2.00000 μM): 52.00
- Median survial ([3]; tail vein 10 mg·kg^−1): 27 days
- number of survived mice ([3]; tail vein 10 mg·kg^−1, Time 12 d): 10
- number of survived mice ([3]; tail vein 10 mg·kg^−1, Time 14 d): 10
- number of survived mice ([3]; tail vein 10 mg·kg^−1, Time 16 d): 9
- number of survived mice ([3]; tail vein 10 mg·kg^−1, Time 18 d): 8
- number of survived mice ([3]; tail vein 10 mg·kg^−1, Time 20 d): 7
- number of survived mice ([3]; tail vein 10 mg·kg^−1, Time 22 d): 6
- number of survived mice ([3]; tail vein 10 mg·kg^−1, Time 24 d): 6
- number of survived mice ([3]; tail vein 10 mg·kg^−1, Time 26 d): 5
- number of survived mice ([3]; tail vein 10 mg·kg^−1, Time 28 d): 4
- number of survived mice ([3]; tail vein 10 mg·kg^−1, Time 30 d): 4
- number of survived mice ([3]; tail vein 10 mg·kg^−1, Time 32 d): 4
- number of survived mice ([3]; tail vein 10 mg·kg^−1, Time 34 d): 3
- number of survived mice ([3]; tail vein 10 mg·kg^−1, Time 36 d): 1
- number of survived mice ([3]; tail vein 10 mg·kg^−1, Time 38 d): 1
- number of survived mice ([3]; tail vein 10 mg·kg^−1, Time 40 d): 0
- number of survived mice ([3]; tail vein 10 mg·kg^−1, Time 42 d): 0
- number of survived mice ([3]; tail vein 10 mg·kg^−1, Time 44 d): 0
- number of survived mice ([3]; tail vein 10 mg·kg^−1, Time 46 d): 0
- number of survived mice ([3]; tail vein 10 mg·kg^−1, Time 48 d): 0
- number of survived mice ([3]; tail vein 10 mg·kg^−1, Time 50 d): 0
- number of survived mice ([3]; tail vein 10 mg·kg^−1, Time 52 d): 0
- number of survived mice ([3]; tail vein 10 mg·kg^−1, Time 54 d): 0
- number of survived mice ([3]; tail vein 10 mg·kg^−1, Time 56 d): 0
- number of survived mice ([3]; tail vein 10 mg·kg^−1, Time 58 d): 0
- number of survived mice ([3]; tail vein 10 mg·kg^−1, Time 60 d): 0
- number of survived mice ([3]; tail vein 10 mg·kg^−1, Time 62 d): 0
- Cell Viability ([4]; listed as 1 of 9, PTX series C 0.0027-6 μg/mL ascending (8 levels)): 91.9
- Cell Viability ([4]; listed as 2 of 9, PTX series C 0.0027-6 μg/mL ascending (8 levels)): 80.5
- Cell Viability ([4]; listed as 3 of 9, PTX series C 0.0027-6 μg/mL ascending (8 levels)): 60.9
- Cell Viability ([4]; listed as 4 of 9, PTX series C 0.0027-6 μg/mL ascending (8 levels)): 50.3
- Cell Viability ([4]; listed as 5 of 9, PTX series C 0.0027-6 μg/mL ascending (8 levels)): 41.6
- Cell Viability ([4]; listed as 6 of 9, PTX series C 0.0027-6 μg/mL ascending (8 levels)): 42.7
- Cell Viability ([4]; listed as 7 of 9, PTX series C 0.0027-6 μg/mL ascending (8 levels)): 38.0
- Cell Viability ([4]; listed as 8 of 9, PTX series C 0.0027-6 μg/mL ascending (8 levels)): 33.2
- Cell Viability ([4]; listed as 9 of 9, PTX series C 0.0027-6 μg/mL ascending (8 levels)): 32.2
- Cell Viability (rat C6 glioma cells [5]; 0.0046 μg/ml): 73.2867
- Cell Viability (rat C6 glioma cells [5]; 0.0412 μg/ml): 60.49
- Cell Viability (rat C6 glioma cells [5]; 0.1235 μg/ml): 49.91
- Cell Viability (rat C6 glioma cells [5]; 0.37 μg/ml): 45.98
- Cell Viability (rat C6 glioma cells [5]; 1.111 μg/ml): 43.89
- Cell Viability (rat C6 glioma cells [5]; 3.333 μg/ml): 43.21
